Where a name gives a salt, the structure may show the parent alone. Read-outs that look alike come from different tables or passages of the source.
Experiments:
Assay in all cases: AK assay 384-well format, Prestwick library screening
E. cloacae = format: cell-based, Enterobacter cloacae; details: 50 μM final drug concentration; for fold induction at 50 µM: Enterobacter cloacae, 3 h
[1] = tested on: S. aureus strain USA300-0114; format: cell-based, Staphylococcus aureus; details: 50 μM final drug concentration; for fold induction at 50 µM: Staphylococcus aureus, USA300, 3 h
E. coli = format: cell-based, Escherichia coli; details: 50 μM final drug concentration; for fold induction at 50 µM: Escherichia coli, 3 h
K. pneumoniae = format: cell-based, Klebsiella pneumoniae; details: 50 μM final drug concentration; for fold induction at 50 µM: Klebsiella pneumoniae, 3 h
E. faecium = format: cell-based, Enterococcus faecium; details: 50 μM final drug concentration; for fold induction at 50 µM: Enterococcus faecium, 3 h
[2] = tested on: A. baumannii strain 98-37-09; format: cell-based, Acinetobacter baumannii; details: 50 μM final drug concentration; for fold induction at 50 µM: Acinetobacter baumannii, 983709, 3 h
P. aeruginosa = format: cell-based, Pseudomonas aeruginosa; details: 50 μM final drug concentration; for fold induction at 50 µM: Pseudomonas aeruginosa, 3 h
[3] = cutoff for positive-scoring molecules 3-fold increase, read-out: AK-based Prestwick Library Screening Results, E. cloacae (fold increase in extracellular AK activity)
[4] = cutoff for positive-scoring molecules 3-fold increase, read-out: AK-based Prestwick Library Screening Results, S. aureus (fold increase in extracellular AK activity)
[5] = cutoff for positive-scoring molecules 3-fold increase, read-out: AK-based Prestwick Library Screening Results, E. coli (fold increase in extracellular AK activity)
[6] = cutoff for positive-scoring molecules 3-fold increase, read-out: AK-based Prestwick Library Screening Results, K. pneumoniae (fold increase in extracellular AK activity)
[7] = cutoff for positive-scoring molecules 3-fold increase, read-out: AK-based Prestwick Library Screening Results, E. faecium (fold increase in extracellular AK activity)
[8] = cutoff for positive-scoring molecules 3-fold increase, read-out: AK-based Prestwick Library Screening Results, A. baumannii (fold increase in extracellular AK activity)
[9] = cutoff for positive-scoring molecules 3-fold increase, read-out: AK-based Prestwick Library Screening Results, P. aeruginosa (fold increase in extracellular AK activity)
[10] = planktonic, cutoff for positive-scoring molecules 3-fold increase
[11] = cutoff for positive-scoring molecules 3-fold increase

## C[C@@H]1[C@H](O)[C@@H](C)/C=C/C=C/CC/C=C/C=C/C=C/C=C/C(O[C@H]2O[C@H](C)[C@@H](O)[C@H](N)[C@@H]2O)CC2O[C@](O)(CC(O)C(O)CCC(O)CC(O)CC(O)CC(=O)O[C@H]1C)CC(O)C2C(=O)O (stereo partly shown) [Nystatine]
E. cloacae; planktonic E. cloacae, […]
  AK-based Prestwick Library Screening Results, E. cloacae (increase in extracellular AK activity): 1.4
[1]; planktonic S. aureus, […]
  AK-based Prestwick Library Screening Results, S. aureus (increase in extracellular AK activity): 0.7
E. coli; planktonic E. coli, […]
  AK-based Prestwick Library Screening Results, E. coli (increase in extracellular AK activity): 1.0
K. pneumoniae; planktonic K. pneumoniae, […]
  AK-based Prestwick Library Screening Results, K. pneumoniae (increase in extracellular AK activity): 0.8
E. faecium; planktonic E. faecium, […]
  AK-based Prestwick Library Screening Results, E. faecium (increase in extracellular AK activity): 0.8
[2]; planktonic A. baumannii, […]
  AK-based Prestwick Library Screening Results, A. baumannii (increase in extracellular AK activity): 0.9
P. aeruginosa; planktonic P. aeruginosa, […]
  AK-based Prestwick Library Screening Results, P. aeruginosa (increase in extracellular AK activity): 0.8

## N[C@@H]1C[C@H]1c1ccccc1 [Tranylcypromine hydrochloride]
E. cloacae; 384-well format, cutoff for positive-scoring molecules 3-fold increase, read-out: AK-based Prestwick Library Screening Results, E. cloacae (increase in extracellular AK activity)
  fold induction at 50 µM: 0.9
[1]; 384-well format, cutoff for positive-scoring molecules 3-fold increase, read-out: AK-based Prestwick Library Screening Results, S. aureus (increase in extracellular AK activity)
  fold induction at 50 µM: 0.8
E. coli; 384-well format, cutoff for positive-scoring molecules 3-fold increase, read-out: AK-based Prestwick Library Screening Results, E. coli (increase in extracellular AK activity)
  fold induction at 50 µM: 0.8
K. pneumoniae; 384-well format, cutoff for positive-scoring molecules 3-fold increase, read-out: AK-based Prestwick Library Screening Results, K. pneumoniae (increase in extracellular AK activity)
  fold induction at 50 µM: 0.6
E. faecium; 384-well format, cutoff for positive-scoring molecules 3-fold increase, read-out: AK-based Prestwick Library Screening Results, E. faecium (increase in extracellular AK activity)
  fold induction at 50 µM: 1
[2]; 384-well format, cutoff for positive-scoring molecules 3-fold increase, read-out: AK-based Prestwick Library Screening Results, A. baumannii (increase in extracellular AK activity)
  fold induction at 50 µM: 0.9
P. aeruginosa; 384-well format, cutoff for positive-scoring molecules 3-fold increase, read-out: AK-based Prestwick Library Screening Results, P. aeruginosa (increase in extracellular AK activity)
  fold induction at 50 µM: 0.8

## Cn1cc[nH]c1=S [Methimazole]
E. cloacae; [3]
  fold induction at 50 µM: 27.1
[1]; [4]
  fold induction at 50 µM: 1
E. coli; [5]
  fold induction at 50 µM: 1.2
K. pneumoniae; [6]
  fold induction at 50 µM: 1
E. faecium; [7]
  fold induction at 50 µM: 0.9
[2]; [8]
  fold induction at 50 µM: 1.4
P. aeruginosa; [9]
  fold induction at 50 µM: 1

## CO[C@@H]1C=C2CCN(C)[C@@H]2C2c3cc4c(cc3C(=O)OC21)OCO4.O=[N+]([O-])O (stereo partly shown) [Ungerine nitrate]
E. cloacae; [10]
  AK-based Prestwick Library Screening Results, E. cloacae (fold increase in extracellular AK activity): 1.4
[1]; [10]
  AK-based Prestwick Library Screening Results, S. aureus (fold increase in extracellular AK activity): 1.2
E. coli; [10]
  AK-based Prestwick Library Screening Results, E. coli (fold increase in extracellular AK activity): 1.3
K. pneumoniae; [10]
  AK-based Prestwick Library Screening Results, K. pneumoniae (fold increase in extracellular AK activity): 1.0
E. faecium; [10]
  AK-based Prestwick Library Screening Results, E. faecium (fold increase in extracellular AK activity): 1.0
[2]; [10]
  AK-based Prestwick Library Screening Results, A. baumannii (fold increase in extracellular AK activity): 1.1
P. aeruginosa; [10]
  AK-based Prestwick Library Screening Results, P. aeruginosa (fold increase in extracellular AK activity): 1.1

## CC(C)NCC(O)c1ccc2ccccc2c1 (stereo not shown) [Pronethalol hydrochloride]
E. cloacae; [3]
  fold induction at 50 µM: 0.9
[1]; [4]
  fold induction at 50 µM: 0.6
E. coli; [5]
  fold induction at 50 µM: 0.7
K. pneumoniae; [6]
  fold induction at 50 µM: 0.6
E. faecium; [7]
  fold induction at 50 µM: 0.9
[2]; [8]
  fold induction at 50 µM: 0.6
P. aeruginosa; [9]
  fold induction at 50 µM: 0.6

## CC[N+]1(C)CCCC(OC(=O)C(O)(c2ccccc2)c2ccccc2)C1 (stereo not shown) [Pipenzolate bromide]
E. cloacae; planktonic, cutoff for positive-scoring molecules 3-fold increase, read-out: AK-based Prestwick Library Screening Results, E. cloacae (fold increase in extracellular AK activity)
  fold induction at 50 µM: 0.9
[1]; planktonic, cutoff for positive-scoring molecules 3-fold increase, read-out: AK-based Prestwick Library Screening Results, S. aureus (fold increase in extracellular AK activity)
  fold induction at 50 µM: 0.8
E. coli; planktonic, cutoff for positive-scoring molecules 3-fold increase, read-out: AK-based Prestwick Library Screening Results, E. coli (fold increase in extracellular AK activity)
  fold induction at 50 µM: 0.9
K. pneumoniae; planktonic, cutoff for positive-scoring molecules 3-fold increase, read-out: AK-based Prestwick Library Screening Results, K. pneumoniae (fold increase in extracellular AK activity)
  fold induction at 50 µM: 0.7
E. faecium; planktonic, cutoff for positive-scoring molecules 3-fold increase, read-out: AK-based Prestwick Library Screening Results, E. faecium (fold increase in extracellular AK activity)
  fold induction at 50 µM: 0.9
[2]; planktonic, cutoff for positive-scoring molecules 3-fold increase, read-out: AK-based Prestwick Library Screening Results, A. baumannii (fold increase in extracellular AK activity)
  fold induction at 50 µM: 0.7
P. aeruginosa; planktonic, cutoff for positive-scoring molecules 3-fold increase, read-out: AK-based Prestwick Library Screening Results, P. aeruginosa (fold increase in extracellular AK activity)
  fold induction at 50 µM: 0.8

## COc1ccc(CN(CCN(C)C)c2ccccn2)cc1 [Pyrilamine maleate]
E. cloacae; planktonic E. cloacae, 384-well, […], read-out: AK-based Prestwick Library Screening Results: E. cloacae (increase in extracellular AK activity)
  fold induction at 50 µM: 1.4
[1]; planktonic S. aureus, 384-well, […], read-out: AK-based Prestwick Library Screening Results: S. aureus (increase in extracellular AK activity)
  fold induction at 50 µM: 1.4
E. coli; planktonic E. coli, 384-well, […], read-out: AK-based Prestwick Library Screening Results: E. coli (increase in extracellular AK activity)
  fold induction at 50 µM: 1.4
K. pneumoniae; planktonic K. pneumoniae, 384-well, […], read-out: AK-based Prestwick Library Screening Results: K. pneumoniae (increase in extracellular AK activity)
  fold induction at 50 µM: 1
E. faecium; planktonic E. faecium, 384-well, […], read-out: AK-based Prestwick Library Screening Results: E. faecium (increase in extracellular AK activity)
  fold induction at 50 µM: 1.2
[2]; planktonic A. baumannii, 384-well, […], read-out: AK-based Prestwick Library Screening Results: A. baumannii (increase in extracellular AK activity)
  fold induction at 50 µM: 1.1
P. aeruginosa; planktonic P. aeruginosa, 384-well, […], read-out: AK-based Prestwick Library Screening Results: P. aeruginosa (increase in extracellular AK activity)
  fold induction at 50 µM: 1.1

## Pyrantel tartrate
E. cloacae; planktonic E. cloacae, 384-well, cutoff for positive-scoring molecules 3-fold increase
  AK-based Prestwick Library Screening Results: E. cloacae (increase in extracellular AK activity): 1.4
[1]; planktonic S. aureus, 384-well, cutoff for positive-scoring molecules 3-fold increase
  AK-based Prestwick Library Screening Results: S. aureus (increase in extracellular AK activity): 1.2
E. coli; planktonic E. coli, 384-well, cutoff for positive-scoring molecules 3-fold increase
  AK-based Prestwick Library Screening Results: E. coli (increase in extracellular AK activity): 1.3
K. pneumoniae; planktonic K. pneumoniae, 384-well, cutoff for positive-scoring molecules 3-fold increase
  AK-based Prestwick Library Screening Results: K. pneumoniae (increase in extracellular AK activity): 0.9
E. faecium; planktonic E. faecium, 384-well, cutoff for positive-scoring molecules 3-fold increase
  AK-based Prestwick Library Screening Results: E. faecium (increase in extracellular AK activity): 1.1
[2]; planktonic A. baumannii, 384-well, cutoff for positive-scoring molecules 3-fold increase
  AK-based Prestwick Library Screening Results: A. baumannii (increase in extracellular AK activity): 1.1
P. aeruginosa; planktonic P. aeruginosa, 384-well, cutoff for positive-scoring molecules 3-fold increase
  AK-based Prestwick Library Screening Results: P. aeruginosa (increase in extracellular AK activity): 1.2

## CC1=NCCc2c1[nH]c1cc(O)ccc21 [Harmalol hydrochloride dihydrate]
E. cloacae; planktonic, cutoff for positive 3-fold increase, read-out: AK-based Prestwick Library Screening Results, E. cloacae (fold increase in extracellular AK activity)
  fold induction at 50 µM: 1.6
[1]; planktonic, cutoff for positive 3-fold increase, read-out: AK-based Prestwick Library Screening Results, S. aureus (fold increase in extracellular AK activity)
  fold induction at 50 µM: 0.8
E. coli; planktonic, cutoff for positive 3-fold increase, read-out: AK-based Prestwick Library Screening Results, E. coli (fold increase in extracellular AK activity)
  fold induction at 50 µM: 1.2
K. pneumoniae; planktonic, cutoff for positive 3-fold increase, read-out: AK-based Prestwick Library Screening Results, K. pneumoniae (fold increase in extracellular AK activity)
  fold induction at 50 µM: 0.8
E. faecium; planktonic, cutoff for positive 3-fold increase, read-out: AK-based Prestwick Library Screening Results, E. faecium (fold increase in extracellular AK activity)
  fold induction at 50 µM: 1
[2]; planktonic, cutoff for positive 3-fold increase, read-out: AK-based Prestwick Library Screening Results, A. baumannii (fold increase in extracellular AK activity)
  fold induction at 50 µM: 1.1
P. aeruginosa; planktonic, cutoff for positive 3-fold increase, read-out: AK-based Prestwick Library Screening Results, P. aeruginosa (fold increase in extracellular AK activity)
  fold induction at 50 µM: 1.2

## Timolol maleate salt
E. cloacae; [11]
  AK-based Prestwick Library Screening Results, E. cloacae (fold increase in extracellular AK activity): 1.4
[1]; [11]
  AK-based Prestwick Library Screening Results, S. aureus (fold increase in extracellular AK activity): 1.3
E. coli; [11]
  AK-based Prestwick Library Screening Results, E. coli (fold increase in extracellular AK activity): 1.3
K. pneumoniae; [11]
  AK-based Prestwick Library Screening Results, K. pneumoniae (fold increase in extracellular AK activity): 1.1
E. faecium; [11]
  AK-based Prestwick Library Screening Results, E. faecium (fold increase in extracellular AK activity): 1.0
[2]; [11]
  AK-based Prestwick Library Screening Results, A. baumannii (fold increase in extracellular AK activity): 1.5
P. aeruginosa; [11]
  AK-based Prestwick Library Screening Results, P. aeruginosa (fold increase in extracellular AK activity): 1.1

Reference: patent US10004701B2, “Methods and compositions for treating infection” (UNIVERSITY OF ROCHESTER, priority 2012, dated 2018)
